Results published in patent US12344649B2, “Modulators of parathyroid hormone receptor (PTHR1)” (Flagship Pioneering Innovations VI, LLC, priority 2019, dated 2025).
Several values for one entry are separate records, joined by “and”; a condition that tells them apart may be missing. Identical values can stand only once. Where no end group is shown, it is not given here.

What was measured:
Type in all cases: cell-based
PTHR1 [1] = target: T1, PTHR1 (Homo sapiens, UniProt Q03431); assay: cAMP accumulation assay (HTRF) in CHO-K1/Ga15/PTHR1 cells; design: host or cells: CHO-K1 (recombinant line CHO-K1/Ga15/PTHR1); conditions: for cAMP accumulation activity compared to control peptide: FIG. 3, PTH 1-34 positive control; for −log10Slope / EC50: cAMP accumulation, replicate plates; for −log10Slope: fitted curve slope; for EC50: read-out: −log10EC50 (converted); for cAMP: relative to PTH [1-34], CHO-K1/Ga15/PTHR1 cells
T1 sequence (Q03431 27-593): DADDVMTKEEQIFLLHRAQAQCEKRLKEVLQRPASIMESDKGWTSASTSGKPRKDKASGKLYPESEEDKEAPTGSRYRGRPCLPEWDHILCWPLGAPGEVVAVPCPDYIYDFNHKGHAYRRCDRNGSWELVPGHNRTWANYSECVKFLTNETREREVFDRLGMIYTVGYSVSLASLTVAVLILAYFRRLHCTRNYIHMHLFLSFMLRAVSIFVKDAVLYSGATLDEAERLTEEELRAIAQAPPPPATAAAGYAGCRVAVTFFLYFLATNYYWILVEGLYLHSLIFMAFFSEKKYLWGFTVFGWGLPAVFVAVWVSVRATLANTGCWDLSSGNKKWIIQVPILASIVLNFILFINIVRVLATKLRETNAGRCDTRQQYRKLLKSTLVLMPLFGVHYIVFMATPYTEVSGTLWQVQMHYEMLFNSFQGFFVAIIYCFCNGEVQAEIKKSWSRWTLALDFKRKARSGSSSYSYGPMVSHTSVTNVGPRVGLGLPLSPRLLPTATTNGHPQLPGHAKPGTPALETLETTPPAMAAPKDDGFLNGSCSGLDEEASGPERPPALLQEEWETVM
Protocol: Cell suspension (5 μL) was seeded in 384-well plates at a density of 3,000 cells/well. Cells were treated with test samples (5 μL) or agonist (PTH 1-34) for 30 minutes at room temperature. cAMP-d2 working solution (5 μL) and anti-cAMP-Cryptate working solution (5 μL) were added to cells and incubated for 60 minutes at room temperature. The signal of the assay plate was read with PheraStar (BMG LABTECH, NC), an HTRF compatible reader.

PTHR1 [2] = target: T1, PTHR1; assay: β-arrestin1 recruitment BRET assay in transfected HEK293T cells; design: Flag (N); Life Technologies Corporation, CA (arrestin cDNA); host or cells: HEK293T (CRL-3216, ATCC); conditions: for −log10Slope / EC50: β-arrestin1 recruitment, replicate plates; for −log10Slope: fitted curve slope; for EC50: read-out: −log10EC50 (converted)
Protocol: (§1) 18-24 hours post transfection, the Luciferase substrate Coelenterazine (NanoLight Technologies, AZ) was added to cells, a baseline BRET measurement was taken after 5 minutes incubation, and then serial dilutions of peptides, diluted in PBS (with 0.5 mM MgCl2+0.1% BSA FAF), were added to cells, and BRET signal was measured every 2 minutes for 30 minutes on Hybrid Multi-Mode Reader (Synergy Neo2, BioTek, VT). Seventy-five peptides were tested in the β-arrestin recruitment assay.

PTHR1 [3] = target: T1, PTHR1; assay: β-arrestin2 recruitment BRET assay in transfected HEK293T cells; design: Flag (N); Life Technologies Corporation, CA (arrestin cDNA); host or cells: HEK293T (CRL-3216, ATCC); conditions: for −log10Slope / EC50: β-arrestin2 recruitment, replicate plates; for −log10Slope: fitted curve slope; for EC50: read-out: −log10EC50 (converted); for β-arrestin2 assay activity compared to control peptide: FIG. 2, PTH 1-34 positive control; for β2-arrestin: relative to PTH [1-34], HEK293T cells, BRET
Protocol: as §1

Row | −log10Slope (PTHR1 [1]) | EC50 (PTHR1 [1]) [nM] | cAMP (PTHR1 [1]) | −log10Slope (PTHR1 [2]) | −log10Slope (PTHR1 [3]) | EC50 (PTHR1 [3]) | EC50 (PTHR1 [2]) | β2-arrestin (PTHR1 [3]) | β1-arrestin (PTHR1 [2]; relative to PTH [1-34], HEK293T cells, BRET) | −log10Slope (PTHR1 [2]; listed as R1-81) | −log10Slope (PTHR1 [3]; listed as R1-81) | Sequence | cAMP accumulation activity compared to control peptide (PTHR1 [1]) | β-arrestin2 assay activity compared to control peptide (PTHR1 [3])
1 | 7.669 | 0.0348 | ++ | −3.786 and −3.741 and −1.605 | −6.422 and −8.23 and −2.379 | – | – | – | – | – | – | AVAEIQLMHQRAKWELQEIGIAITLRLLARYI [Peptide R2-43] | increased activity as compared to the control peptide | –
2 | 4.438 | 0.00841 | ++ | −4.328 and −4.739 and −2.6191 | −2.787 and −1.761 and −3.574 | 255 nM and 1750 nM and 337 nM | 483 nM and 470 nM and 542 nM | – | – | – | – | AVAEIQLMHQRAKWGLEIELLKLLLSLLKEYI [Peptide R2-45] | increased activity as compared to the control peptide | –

The next lines start with the sequence.

Row | Sequence | −log10Slope (PTHR1 [1]) | EC50 (PTHR1 [1]) [nM] | cAMP (PTHR1 [1]) | −log10Slope (PTHR1 [2]) | −log10Slope (PTHR1 [3]) | EC50 (PTHR1 [3]) | EC50 (PTHR1 [2]) | β2-arrestin (PTHR1 [3]) | β1-arrestin (PTHR1 [2]; relative to PTH [1-34], HEK293T cells, BRET) | −log10Slope (PTHR1 [2]; listed as R1-81) | −log10Slope (PTHR1 [3]; listed as R1-81) | cAMP accumulation activity compared to control peptide (PTHR1 [1]) | β-arrestin2 assay activity compared to control peptide (PTHR1 [3])
3 | AVAEIQLMHQRAKWEIQEIGIKITLELLKEYI [Peptide R2-37] | −5.899 | 0.813 | – | −1.386 and −0.8678 and −5.353 | −4.144 and −2.117 and −4.372 | 386 nM and 1380 nM and 497 nM | – | – | – | – | – | increased activity as compared to the control peptide | –
4 | AVAEIQLMHQRAKWLNELRLKEEMRKILEDVY [Peptide R2-33] | −17.9495 | 80.1 | – | −2.007 and −4.048 and −4.079 | −5.331 and −2.162 and −8.426 | 7.61 nM and 4.94 nM and 8.19 nM | 5.83 nM and 10.3 nM and 3.98 nM | + | – | – | – | – | activity similar to the control peptide
5 | AVAEIQLMHQRAKWIQDARRRAFLHKLIAEIH [LA-PM-FL, reference compound] | −5.23 | 13.1 | – | – | – | 3.64 nM and 3.04 nM and 3.08 nM | 1.75 nM and 2.65 nM and 3.53 nM | ++ | + | −3.271 and −2.571 and −2.99 | −3.14 and −3.448 and −2.307 | – | increased activity as compared to control
